Measured values as given in ChEMBL document CHEMBL3407340, “Synthesis, radiolabeling and evaluation of novel 4-oxo-quinoline derivatives as PET tracers for imaging cannabinoid type 2 receptor” (Eur J Med Chem, 2015).

Target: Cannabinoid receptor 1 (Homo sapiens, UniProt P21554)
Test: Displacement of [3H]-CP-55940 from human CB1 receptor transfected in CHOK1 cells after 90 mins by liquid scintillation counting analysis
Type: cell-based, CHO-K1

Sequence of Cannabinoid receptor 1 (P21554 whole entry): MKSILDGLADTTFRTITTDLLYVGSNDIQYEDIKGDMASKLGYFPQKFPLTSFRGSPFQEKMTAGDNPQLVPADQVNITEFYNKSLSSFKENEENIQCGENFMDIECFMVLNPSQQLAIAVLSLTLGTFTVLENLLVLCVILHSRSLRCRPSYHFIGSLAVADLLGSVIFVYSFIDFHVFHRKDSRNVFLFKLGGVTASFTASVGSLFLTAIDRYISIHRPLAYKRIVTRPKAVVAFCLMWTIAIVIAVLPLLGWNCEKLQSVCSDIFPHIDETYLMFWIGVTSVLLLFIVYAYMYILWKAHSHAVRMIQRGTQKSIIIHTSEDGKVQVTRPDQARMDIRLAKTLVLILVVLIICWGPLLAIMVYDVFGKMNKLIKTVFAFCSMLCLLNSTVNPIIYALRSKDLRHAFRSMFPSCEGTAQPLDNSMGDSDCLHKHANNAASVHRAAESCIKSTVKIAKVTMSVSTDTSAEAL

| Compound | Ki [µM] |
| --- | --- |
| CCOCCn1cc(C(=O)NCCc2ccccc2)c(=O)c2cccc(OC)c21 | > 10 |
| CCCCn1cc(C(=O)NC23CC4CC(CC(C4)C2)C3)c(=O)c2cccc(OC)c21 | > 10 |
| COc1cccc2c(=O)c(C(=O)NC(C)(C)C)cn(CCCF)c12 | > 10 |
| CCCCn1cc(C(=O)NC(C)(C)C)c(=O)c2cccc(OC)c21 | > 10 |
| CCCCn1cc(C(=O)NC2CCCC2)c(=O)c2cccc(OC)c21 | > 10 |
